Test results reported in EP0369391A2, “N-substituted amides” (BOEHRINGER INGELHEIM PHARMACEUTICALS INC., priority 1988, dated 1990).
Several values for one entry are separate records, joined by “and”; a condition that tells them apart may be missing. Identical values can stand only once. Like-named read-outs stand apart in the source and are kept apart here.

Columns and labels:
[1] = biological target: T1, human neutrophil elastase (HNE) (Homo sapiens, UniProt P08246); experiment: Elastase Inhibition - Animal Model (acute hamster hemorrhage model); conditions: 20 ug i.t. compound, 50 µg HNE i.t., hemorrhage in lung lavage after 18 hours
T1 sequence (P08246 30-247 limits assumed): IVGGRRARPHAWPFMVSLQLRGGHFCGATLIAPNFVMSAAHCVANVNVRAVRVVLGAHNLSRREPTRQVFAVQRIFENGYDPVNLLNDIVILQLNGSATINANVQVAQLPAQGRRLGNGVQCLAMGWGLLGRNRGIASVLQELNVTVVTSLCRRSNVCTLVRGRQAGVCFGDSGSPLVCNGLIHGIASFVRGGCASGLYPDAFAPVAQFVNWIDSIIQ

[2] = biological target: T2, Human sputum elastase ( HSE ) (Homo sapiens, UniProt P08246); experiment: Elastase Inhibition - In Vitro Method (hydrolysis of MeO-Suc-Ala-Ala-Pro-Val-pNA, microtiter format); type: biochemical; conditions: for inhibition at 5 µg/mL: 5ug/mL compound; for IC50: 0.5 mM substrate, 15 minutes pre-incubation
T2 construct: Human sputum elastase ( HSE ) (Elasten Products Co., Pacific, Mo.); purchased Elasten Products Co., Pacific, Mo; host or cells: human sputum (by the name of the product)
T2 sequence (P08246 30-267): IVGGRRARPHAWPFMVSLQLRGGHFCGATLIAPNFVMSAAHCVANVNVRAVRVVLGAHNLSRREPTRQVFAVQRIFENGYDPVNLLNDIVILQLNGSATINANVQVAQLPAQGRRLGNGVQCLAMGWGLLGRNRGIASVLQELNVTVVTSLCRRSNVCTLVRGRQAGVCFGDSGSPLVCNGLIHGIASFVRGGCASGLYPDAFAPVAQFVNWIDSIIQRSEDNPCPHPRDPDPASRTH
Source text: The in vitro assay is based upon the hydrolysis of the commercially available (Sigma Chemical Company, St. Louis, Missouri) substrate methoxy O-succinyl-L-alanyl-L-alanyl-L-prolyl-L-valine para-nitroanilide (MeO-Suc-Ala-Sla-Pro-Val-pNA) and the resulting release of p-nitroanilide (pNA), which absorbs at 405 nm.
• a. Microtiter plates (96 well, flat bottom) • b. Vmax Kinetic Microtiter Plate Reader, equipped with 405 nm filter (Molecular Devices) • c. Microtiter Plate Mixer (Fisher Scientific) • d.
• a. Human sputum elastase ( HSE ) (Elasten Products Co., Pacific, Mo.) dissolved in 1 mg/mL in 0.05 M sodium chloride and frozen (50 µL aliquots) at -20°C until used. • b. Stock solution of MeO-Suc-Ala-Ala-Pro-Val-pNA dissolved at 15 mM in dimethylsulfoxide (DMSO) and frozen (4 mL aliquots) at -20°C until used. • c. Assay buffer: 0.1 M Tris buffer, pH 7.5 containing 0.5 sodium chloride
Screening is performed in microtiter plates, using 0.5 mM substrate and monitored on a Microtiter Reader. Enzyme activity (+/- test compound) is determined as the rate of pNA release (linear regression analysis of slope). Inhibitory activity of the test compound is calculated relative to the uninhibited enzyme control, as follows: [formula]
A frozen aliquot of HSE is thawed and diluted with assay buffer to a stock concentration of 0.02 mg/mL ( 30 x assay concentration). A frozen aliquot of the substrate stock solution is thawed and diluted to 0.5 mM with the assay buffer (final DMSO concentration is […]). 10 µl of the test compound stock solution (or assay buffer) and 10 µl of the HSE stock solution are pipetted into each microtiter well, in duplicate. The plate is mixed well, and pre-incubated at room temperature for 15 minutes. A 300 µl substrate solution is then added to each well and the OD₄₀₅ is followed for approximately 30 minutes.

Human Cathepsin G = biological target: T3, Human Cathepsin G (Homo sapiens, UniProt P08311); experiment: Selectivity assay: Human Cathepsin G; type: biochemical; conditions: IC50 of 5 or greater is considered inactive
T3 sequence (P08311 21-244): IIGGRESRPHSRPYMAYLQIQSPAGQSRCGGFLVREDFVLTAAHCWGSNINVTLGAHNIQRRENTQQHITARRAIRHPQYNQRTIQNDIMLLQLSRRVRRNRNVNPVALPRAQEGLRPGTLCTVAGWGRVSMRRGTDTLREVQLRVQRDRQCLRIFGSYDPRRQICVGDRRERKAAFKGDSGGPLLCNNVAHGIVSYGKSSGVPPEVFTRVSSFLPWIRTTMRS

[3] = biological target: Tissue Plasminogen Activator (Homo sapiens, UniProt P00750); experiment: Selectivity assay: Tissue Plasminogen Activator; type: biochemical; conditions: IC50 of 5 or greater is considered inactive
Human Renin = biological target: T4, Human Renin (Homo sapiens, UniProt P00797); experiment: Selectivity assay: Human Renin; type: biochemical; conditions: IC50 of 5 or greater is considered inactive
T4 sequence (P00797 67-406): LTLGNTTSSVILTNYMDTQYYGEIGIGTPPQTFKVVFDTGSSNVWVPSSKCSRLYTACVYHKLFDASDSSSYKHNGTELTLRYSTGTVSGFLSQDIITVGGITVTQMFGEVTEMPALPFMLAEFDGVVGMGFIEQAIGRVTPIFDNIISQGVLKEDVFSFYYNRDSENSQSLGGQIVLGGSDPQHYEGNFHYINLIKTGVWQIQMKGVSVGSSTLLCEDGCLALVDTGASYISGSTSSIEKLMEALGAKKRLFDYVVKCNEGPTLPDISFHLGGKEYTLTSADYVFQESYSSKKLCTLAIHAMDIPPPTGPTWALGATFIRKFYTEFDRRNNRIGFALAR

PT = conditions: IC50 of 5 or greater is considered inactive
Human Urokinase = Human Urokinase (Homo sapiens, UniProt P00749); experiment: Selectivity assay: Human Urokinase; type: biochemical; conditions: IC50 of 5 or greater is considered inactive
Total Complement = experiment: Selectivity assay: Total Complement; conditions: IC50 of 5 or greater is considered inactive
APTT = experiment: Selectivity assay: APTT; conditions: IC50 of 5 or greater is considered inactive
Human Cathepsin B = Human Cathepsin B (Homo sapiens, UniProt P07858); experiment: Selectivity assay: Human Cathepsin B; type: biochemical; conditions: IC50 of 5 or greater is considered inactive
Human C1 Esterase = biological target: T5, Human C1 Esterase (Homo sapiens, UniProt P09871); experiment: Selectivity assay: Human C1 Esterase; type: biochemical; conditions: IC50 of 5 or greater is considered inactive
T5 sequence (P09871 16-688): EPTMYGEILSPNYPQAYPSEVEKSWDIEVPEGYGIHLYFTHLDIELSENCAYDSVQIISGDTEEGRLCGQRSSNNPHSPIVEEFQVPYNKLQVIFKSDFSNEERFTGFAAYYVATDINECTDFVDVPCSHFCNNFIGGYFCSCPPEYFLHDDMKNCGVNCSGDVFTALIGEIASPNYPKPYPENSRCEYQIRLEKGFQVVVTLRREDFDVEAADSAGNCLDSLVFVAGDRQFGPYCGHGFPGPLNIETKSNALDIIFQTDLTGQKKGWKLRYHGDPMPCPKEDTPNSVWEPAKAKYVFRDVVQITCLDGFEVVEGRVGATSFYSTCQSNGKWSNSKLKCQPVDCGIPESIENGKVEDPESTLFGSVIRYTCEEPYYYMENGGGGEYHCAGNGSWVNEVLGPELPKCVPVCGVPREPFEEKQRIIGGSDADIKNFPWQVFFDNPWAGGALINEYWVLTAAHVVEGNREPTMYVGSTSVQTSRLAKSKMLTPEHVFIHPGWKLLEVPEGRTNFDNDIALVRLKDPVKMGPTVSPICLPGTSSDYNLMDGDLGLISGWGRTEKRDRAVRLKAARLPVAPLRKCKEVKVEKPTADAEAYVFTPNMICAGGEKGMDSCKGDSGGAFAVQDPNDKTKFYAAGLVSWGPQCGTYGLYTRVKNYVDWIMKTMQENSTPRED

Polio 3C - Proteinase = Polio 3C - Proteinase (Poliovirus type 1, UniProt P03300); experiment: biochemical
[4] = 0 % HSA, read-out: % Inhib. (5ug/mL) 0 % HSA
[5] = 0.5 % HSA added, read-out: % Inhib. (5ug/mL) 0.5 % HSA

Chain of Tissue Plasminogen Activator (P00750 36-562): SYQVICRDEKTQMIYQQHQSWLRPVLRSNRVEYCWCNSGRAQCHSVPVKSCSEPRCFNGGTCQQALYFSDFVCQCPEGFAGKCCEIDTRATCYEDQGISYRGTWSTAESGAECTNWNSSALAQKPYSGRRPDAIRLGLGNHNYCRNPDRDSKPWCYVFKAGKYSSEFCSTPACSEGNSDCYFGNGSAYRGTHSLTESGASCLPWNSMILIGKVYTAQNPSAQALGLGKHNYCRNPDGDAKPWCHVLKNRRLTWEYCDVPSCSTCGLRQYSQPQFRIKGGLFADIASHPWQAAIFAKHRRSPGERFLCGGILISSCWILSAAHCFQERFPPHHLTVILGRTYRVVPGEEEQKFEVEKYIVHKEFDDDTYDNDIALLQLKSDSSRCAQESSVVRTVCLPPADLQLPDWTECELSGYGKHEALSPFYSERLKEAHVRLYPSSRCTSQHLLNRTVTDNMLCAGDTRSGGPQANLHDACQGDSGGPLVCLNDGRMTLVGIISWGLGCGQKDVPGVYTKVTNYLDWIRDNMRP
Chain of Polio 3C - Proteinase (P03300 1566-1748 limits assumed): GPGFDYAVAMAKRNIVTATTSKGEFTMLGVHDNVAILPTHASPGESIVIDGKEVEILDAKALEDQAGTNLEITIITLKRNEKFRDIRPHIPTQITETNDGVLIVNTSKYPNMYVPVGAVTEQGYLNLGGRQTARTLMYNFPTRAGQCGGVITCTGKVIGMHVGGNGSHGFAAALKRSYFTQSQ

SMILES: CC(C)C(NC(=O)CN(C(=O)[C@@H](NC(=O)c1ccc(C(=O)NS(=O)(=O)c2ccc(Cl)cc2)cc1)C(C)C)C1CCCC1)C(=O)C(F)(F)F (single isomer, unassigned) [Cyclopentyl, p-[p-Cl(C6H4)SO2NHCO](C6H4)CO - (Diastereomer of Above), [[4-(4-Chlorophenyl)sulfonylaminocarbonyl]phenyl-1-oxomethyl]-L-Valyl-N-cyclopentyl-glycyl-N-[3-(1,1,1-trifluoro-4-methyl-2-oxypentyl)]amide]
- % Inhib. (20 ug. i.t.) [1]: 99.0%
- inhibition at 5 µg/mL [2, 4]: 99.8%
- inhibition at 5 µg/mL [2, 5]: 99.7%

SMILES: CC(C)C(NC(=O)CN(C(=O)[C@@H](NC(=O)c1ccc(C(=O)NS(=O)(=O)c2ccc(Cl)cc2)cc1)C(C)C)C1CCCC1)C(=O)C(F)(F)F (single isomer, unassigned) [[[4-(4-Chlorophenyl)sulfonylaminocarbonyl]phenyl-1-oxomethyl]-L-Valyl-N-cyclopentyl-glycyl-N-[3-(1,1,1-trifluoro-4-methyl-2-oxypentyl)]amide]
- % Inhib. (20 ug. i.t.) [1]: 99.2%
- inhibition at 5 µg/mL [2, 4]: 100%
- inhibition at 5 µg/mL [2, 5]: 99.8%
- IC50 ([2]; Table I, read-out: IC50 (converted)): 0.113 µM and 0.0923 µM

SMILES: COc1ccc(CCN(CC(=O)NC(C(=O)C(F)(F)F)C(C)C)C(=O)[C@@H](NC(=O)OCc2ccccc2)C(C)C)cc1OC (stereo partly shown) [3,4 - Dimethoxyphenethyl, CBZ]
- inhibition at 5 µg/mL [2, 4]: 95.1%
- inhibition at 5 µg/mL [2, 5]: 87.8%
- IC50 ([2]; Table I): 0.432 µg/mL

SMILES: CC(C)C(NC(=O)CN(C(=O)[C@@H](NC(=O)c1ccc(C(=O)NS(=O)(=O)c2ccc(Cl)cc2)cc1)C(C)C)C1Cc2ccccc2C1)C(=O)C(F)(F)F (stereo partly shown) [Compound of Table III]
- IC50 (Human Cathepsin G): > 9.17 µM
- IC50 [3]: > 6.55 µM
- IC50 (Human Renin): > 6.55 µM
- IC50 (PT): >> 100 ug/mL
- IC50 (Human Urokinase): > 6.55 µM
- IC50 (Total Complement): >> 100 ug/mL
- IC50 (APTT): >> 100 ug/mL
- IC50 (Human Cathepsin B): > 6.55 µM
- IC50 (Human C1 Esterase): > 6.55 µM
- IC50 (Polio 3C - Proteinase): > 82.5 µM

SMILES: CC(C)C(NC(=O)CN(C(=O)[C@@H](NC(=O)OCc1ccccc1)C(C)C)C1CCCC1)C(=O)C(F)(F)F (stereo partly shown) [Cyclopentyl, CBZ]
- inhibition at 5 µg/mL [2, 4]: 100%
- inhibition at 5 µg/mL [2, 5]: 99.4%
- IC50 ([2]; Table I): 0.082 µg/mL

SMILES: COc1ccc(CCN(CC(=O)NC(C(=O)C(F)(F)F)C(C)C)C(=O)[C@@H](NC(=O)c2ccc(C(=O)NS(=O)(=O)c3ccc(Cl)cc3)cc2)C(C)C)cc1OC (stereo partly drawn) [[(4-(4-Chlorophenyl)sulfonylaminocarbonyl]phenyl-1-oxomethyl]-L-Valyl-N-[2-(3,4-dimethoxy)phenethyl] glycyl-N-[3-(1,1,1-trifluoro-4-methyl-2-oxypentyl)] amide]
- % Inhib. (20 ug. i.t.) [1]: 90.2%
- inhibition at 5 µg/mL [2, 4]: 98.8%
- inhibition at 5 µg/mL [2, 5]: 96.3%
- IC50 ([2]; IC50, Table I): 0.103 µM

SMILES: CC(C)C(NC(=O)CN(C(=O)[C@@H](NC(=O)c1ccc(C(=O)NS(=O)(=O)c2ccc(Cl)cc2)cc1)C(C)C)C1CC2CCC1C2)C(=O)C(F)(F)F (stereo partly drawn) [[[4-(4-Chlorophenyl)sulfonylaminocarbonyl]phenyl-1-oxomethyl]-L-Valyl-N-(exo-bicyclo[2,2,1]hept-2-yl)glycyl-N-[3-(1,1,1-trifluoro-4-methyl-2-oxypentyl)]amide]
- % Inhib. (20 ug. i.t.) [1]: 93.8%
- inhibition at 5 µg/mL [2, 4]: 99.8%
- inhibition at 5 µg/mL [2, 5]: 99.5%
- IC50 ([2]; Table I): 0.045 µg/mL
